{
  "source": "patent US12558320B2",
  "about": "“Method of preparing a solid dosage form and a lubricant” (Evonik Operations GmbH, priority 2019, dated 2026)",
  "experiment": "Quantification of stearic acid and palmitic acid in water after homogenization, centrifugation and filtration",
  "format": "physicochemical",
  "description": "For the quantification of stearic acid and palmitic acid in water from magnesium stearate alone 1 mg magnesium stearate was added in water under high shear homogenization and mixed for 15 min under continuous homogenization. After homogenization, the prepared dispersion was centrifuged to remove bigger particle size. The supernatant solution was then filtered through 0.2-micron nylon syringe filter and the filtrate was analyzed for content of stearic acid and palmitic acid. […] After homogenization, the prepared dispersion was centrifuged to remove bigger particle size. The supernatant solution was then filtered through 0.45 μm (B1) or 0.2 μm (B2) nylon syringe filter and the filtrate were analyzed for content of stearic acid and palmitic acid.",
  "data": [
    {"substance": "Magnesium stearate", "values": [
      {"measurement": "Palmitic acid", "setting": "powder, unfiltered", "value": 49.35, "unit": "% w/w"},
      {"measurement": "Stearic acid", "setting": "powder, unfiltered", "value": 50.64, "unit": "% w/w"},
      {"measurement": "Palmitic acid", "setting": "water, 0.2 μm filtered", "value": 2.91, "unit": "% w/w"},
      {"measurement": "Stearic acid", "setting": "water, 0.2 μm filtered", "value": 0.00, "unit": "% w/w"},
      {"measurement": "Total fatty acid in media", "setting": "water, 0.2 μm filtered", "value": 2.91, "unit": "%"}
    ]}
  ]
}
